Data: PubChem BioAssay AID2060510 (Molecular Pharmacology Branch, DTP, NCI, 2025)

Test system: 439559-082-T-J2-PDC spheroids viability
Assay: Anticancer human tumor 439559-082-T-J2-PDC patient-derived colon adenocarcinoma cell line growth inhibition [GQUAD]
Conditions: for IC50: curve of first compound; for viability, T/C: stronger effect = lower value
Method in brief: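 Multi-cell-type spheroids of tumor cells with HUVEC and mesenchymal stem cells, treated with drug combinations. Concentrations descend in half-log steps from near clinical Cmax, or from 10 microM where Cmax is unknown; viability read-out.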

[1] = second compound 0.0316 µM, first compound 0.0316 µM
[2] = second compound 0.0316 µM, first compound 0.316 µM
[3] = second compound 0.1 µM, first compound 0.0316 µM
[4] = second compound 0.1 µM, first compound 0.316 µM
[5] = second compound 0.316 µM, first compound 0.0316 µM
[6] = second compound 0.316 µM, first compound 0.316 µM
[7] = second compound 1 µM, first compound 0.0316 µM
[8] = second compound 1 µM, first compound 0.316 µM
[9] = second compound 3.16 µM, first compound 0.0316 µM
[10] = second compound 3.16 µM, first compound 0.316 µM
[11] = second compound 10 µM, first compound 0.0316 µM
[12] = second compound 10 µM, first compound 0.316 µM
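Note: spheroids exposed to the agents for 7 days before readout.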
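Throughout, for viability, T/C: percent of luminescence signal in DMSO vehicle wells taken as 100% viability.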

Cn1ncnc1[C@H]1c2n[nH]c(=O)c3cc(F)cc(c23)N[C@@H]1c1ccc(F)cc1 + Cc1cnc(CNC(=O)c2c(=O)c3ccc(N4CCCN(C)CC4)nc3n3c2sc2ccccc23)cn1
IC50 (second compound 0.0316 µM): > 0.316 µM
IC50 (second compound 0.1 µM): > 0.316 µM
IC50 (second compound 0.316 µM): > 0.316 µM
IC50 (second compound 1 µM): > 0.316 µM
IC50 (second compound 3.16 µM): > 0.316 µM
IC50 (second compound 10 µM): > 0.316 µM
viability, T/C (second compound 0.0316 µM, first compound 0.000999 µM): 96.2%
viability, T/C (second compound 0.0316 µM, first compound 0.00316 µM): 92%
viability, T/C (second compound 0.0316 µM, first compound 0.00999 µM): 102%
viability, T/C [1]: 99.7%
viability, T/C (second compound 0.0316 µM, first compound 0.0999 µM): 103%
viability, T/C [2]: 94.8%
viability, T/C (second compound 0.1 µM, first compound 0.000999 µM): 109%
viability, T/C (second compound 0.1 µM, first compound 0.00316 µM): 84.8%
viability, T/C (second compound 0.1 µM, first compound 0.00999 µM): 95.8%
viability, T/C [3]: 88%
viability, T/C (second compound 0.1 µM, first compound 0.0999 µM): 87.3%
viability, T/C [4]: 79.6%
viability, T/C (second compound 0.316 µM, first compound 0.000999 µM): 93.8%
viability, T/C (second compound 0.316 µM, first compound 0.00316 µM): 85.5%
viability, T/C (second compound 0.316 µM, first compound 0.00999 µM): 93%
viability, T/C [5]: 82.6%
viability, T/C (second compound 0.316 µM, first compound 0.0999 µM): 88.6%
viability, T/C [6]: 74.4%
viability, T/C (second compound 1 µM, first compound 0.000999 µM): 72.2%
viability, T/C (second compound 1 µM, first compound 0.00316 µM): 81.5%
viability, T/C (second compound 1 µM, first compound 0.00999 µM): 74.3%
viability, T/C [7]: 76%
viability, T/C (second compound 1 µM, first compound 0.0999 µM): 81.6%
viability, T/C [8]: 64.8%
viability, T/C (second compound 3.16 µM, first compound 0.000999 µM): 72.1%
viability, T/C (second compound 3.16 µM, first compound 0.00316 µM): 70.8%
viability, T/C (second compound 3.16 µM, first compound 0.00999 µM): 76.5%
viability, T/C [9]: 71%
viability, T/C (second compound 3.16 µM, first compound 0.0999 µM): 73.8%
viability, T/C [10]: 67.8%
viability, T/C (second compound 10 µM, first compound 0.000999 µM): 65%
viability, T/C (second compound 10 µM, first compound 0.00316 µM): 65%
viability, T/C (second compound 10 µM, first compound 0.00999 µM): 67.4%
viability, T/C [11]: 63.5%
viability, T/C (second compound 10 µM, first compound 0.0999 µM): 70.9%
viability, T/C [12]: 63.9%

O=C(c1cc(Cc2n[nH]c(=O)c3ccccc23)ccc1F)N1CCN(C(=O)C2CC2)CC1 + Cc1cnc(CNC(=O)c2c(=O)c3ccc(N4CCCN(C)CC4)nc3n3c2sc2ccccc23)cn1
IC50 (second compound 0.0316 µM): > 10 µM
IC50 (second compound 0.1 µM): > 10 µM
IC50 (second compound 0.316 µM): > 10 µM
IC50 (second compound 1 µM): > 10 µM
IC50 (second compound 3.16 µM): > 10 µM
IC50 (second compound 10 µM): > 10 µM
viability, T/C [1]: 94%
viability, T/C (second compound 0.0316 µM, first compound 0.1 µM): 99.1%
viability, T/C [2]: 97.3%
viability, T/C (second compound 0.0316 µM, first compound 1 µM): 94%
viability, T/C (second compound 0.0316 µM, first compound 3.16 µM): 96.8%
viability, T/C (second compound 0.0316 µM, first compound 10 µM): 98.2%
viability, T/C [3]: 97%
viability, T/C (second compound 0.1 µM, first compound 0.1 µM): 87.7%
viability, T/C [4]: 88.4%
viability, T/C (second compound 0.1 µM, first compound 1 µM): 89.5%
viability, T/C (second compound 0.1 µM, first compound 3.16 µM): 101%
viability, T/C (second compound 0.1 µM, first compound 10 µM): 91.9%
viability, T/C [5]: 90.6%
viability, T/C (second compound 0.316 µM, first compound 0.1 µM): 93.2%
viability, T/C [6]: 84.1%
viability, T/C (second compound 0.316 µM, first compound 1 µM): 85.5%
viability, T/C (second compound 0.316 µM, first compound 3.16 µM): 85.7%
viability, T/C (second compound 0.316 µM, first compound 10 µM): 78.8%
viability, T/C [7]: 82.8%
viability, T/C (second compound 1 µM, first compound 0.1 µM): 75%
viability, T/C [8]: 72.5%
viability, T/C (second compound 1 µM, first compound 1 µM): 73.1%
viability, T/C (second compound 1 µM, first compound 3.16 µM): 89.7%
viability, T/C (second compound 1 µM, first compound 10 µM): 81.7%
viability, T/C [9]: 75.5%
viability, T/C (second compound 3.16 µM, first compound 0.1 µM): 62.9%
viability, T/C [10]: 68.8%
viability, T/C (second compound 3.16 µM, first compound 1 µM): 73.8%
viability, T/C (second compound 3.16 µM, first compound 3.16 µM): 74.9%
viability, T/C (second compound 3.16 µM, first compound 10 µM): 68.5%
viability, T/C [11]: 68.3%
viability, T/C (second compound 10 µM, first compound 0.1 µM): 71.4%
viability, T/C [12]: 69%
viability, T/C (second compound 10 µM, first compound 1 µM): 68.8%
viability, T/C (second compound 10 µM, first compound 3.16 µM): 71.9%
viability, T/C (second compound 10 µM, first compound 10 µM): 61.8%
